Assay results published in BindingDB's records for PubMed 34479036 (n/a, 2021).

Target: T1, Prostaglandin G/H synthase 2 (Homo sapiens, UniProt P35354)
T1 sequence (P35354 whole entry): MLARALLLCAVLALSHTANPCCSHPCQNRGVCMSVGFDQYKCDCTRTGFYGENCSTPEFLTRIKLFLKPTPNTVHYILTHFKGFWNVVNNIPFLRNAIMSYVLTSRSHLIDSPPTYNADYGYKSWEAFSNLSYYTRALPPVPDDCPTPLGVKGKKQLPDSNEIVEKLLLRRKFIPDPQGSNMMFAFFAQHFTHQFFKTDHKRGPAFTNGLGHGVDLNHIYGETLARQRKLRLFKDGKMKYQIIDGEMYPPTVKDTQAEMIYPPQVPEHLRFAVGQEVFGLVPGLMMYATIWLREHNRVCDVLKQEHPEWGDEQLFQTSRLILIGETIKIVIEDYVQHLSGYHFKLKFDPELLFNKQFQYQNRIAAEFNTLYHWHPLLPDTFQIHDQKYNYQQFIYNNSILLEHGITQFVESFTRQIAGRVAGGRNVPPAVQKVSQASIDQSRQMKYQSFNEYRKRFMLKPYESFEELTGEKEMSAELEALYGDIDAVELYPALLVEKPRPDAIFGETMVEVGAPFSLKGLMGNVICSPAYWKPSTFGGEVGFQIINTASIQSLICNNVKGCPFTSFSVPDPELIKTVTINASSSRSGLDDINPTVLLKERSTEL
Experiment: Inhibition of COX-2 (unknown origin) by enzyme immune assay

IC50: 88 nM
Compound: C=C1CC[C@@H]2[C@H](CC2(C)C)C(=C)CC[C@H]1O
